{"source": "patent US20230113398A1", "about": "“INEXPENSIVE METAL-FREE ORGANIC REDOX FLOW BATTERY (ORBAT) FOR GRID-SCALE STORAGE” (UNIVERSITY OF SOUTHERN CALIFORNIA, priority 2013, published 2023)", "key": {"[1]": {"assay": "Rotating disk electrode and cyclic voltammetry on glassy carbon, 1 mM compound in 1 M sulfuric acid", "format": "physicochemical", "procedure": "Measurement of kinetic parameters and diffusion coefficients was conducted in a three-electrode cell consisting of a rotating glassy carbon disk working electrode, a platinum wire counter electrode, and a mercury/mercuric sulfate reference electrode (E° = +0.65 V). […] The solutions were de-aerated and kept under a blanket of argon gas throughout all the experiments. All measurements were conducted in the potentiodynamic mode (Versastat 300 potentiostat) at a scan rate of 5 mV s^-1 over a range of rotation rates (500 rpm to 3000 rpm). Impedance measurements were also made at each rotation rate. Cyclic voltammetry was conducted on a static glassy carbon electrode at a scan rate of 50 mV s^-1.\n(§1) Where n is the number of electrons transferred, F, the Faraday constant, A, electrode area, Do, the diffusion coefficient, v, the kinematic viscosity of the solution and C*, the bulk concentration of the reactants. For n = 2, an active electrode area of 0.1925 cm^2, and a kinematic viscosity of the electrolyte of 0.01 cm^2 s^-1, we were able to evalulate the diffusion coefficient from the slope of the straight line plots in FIG. 11D.\n(§2) To determine the kinetic parameters for the charge-transfer process, namely the rate constant and the apparent transfer coeffcient, the logarithm of the kinetic current (after correction for mass-transport losses) was plotted against the observed overpotentials greater than 100 mV, where the Tafel equation is applicable (Eq. 4 and FIG. 11E).\n(§3) Where I is the current, Ilim is the limiting current, Iex is the exchange current density, Co and CR are the concentration of the oxidized and reduced species at the surface of the electrode, Co* and CR* are the bulk concentrations of the oxidized and reduced species, α is the transfer coefficient, n is the number of electrons transferred, F is the Faraday constant, E-Erev is the overpotential, R is the gas constant, and T is the temperature. The rate constant, ko , was obtained from the exchange current density (Eq. 5).\nas §1, with “plots.” for “plots in FIG. 11D.”\nas §2, with “equation derived from the Butler-Volmer Equation” for “equation”, “: […]” for “(Eq. 4 and FIG. 11E).”\nas §3, with “using the relationship” for “(Eq. 5).”"}, "[2]": {"assay": "Cyclic voltammetry in 1 M potassium hydroxide", "format": "physicochemical"}, "[3]": {"assay": "Charge/discharge cycling of full ORBAT flow cells", "conditions": "25 cm^2 flow cell, 0.2 M solutions, 1 M sulfuric acid, at least 12 cycles", "text": "A flow cell was constructed using fuel cell hardware that has graphite end plates (Electrochem Inc.) and an electrode active area of 25 cm^2. The reactant was circulated using peristaltic pumps (Masterflex) at a flow rate of approximately 0.5-1.0 liter min^-1. Membrane electrode assemblies (MEA) needed for the cell were fabricated in house using procedures similar to those previously reported for direct methanol fuel cells. (G. K. S. Prakash, M. C. Smart, Q. J. Wang, A. Atti, V. Pleynet, B. Yang, K. McGrath, G. A. Olah, S. R. Narayanan, W. Chun, T. Valdez, S. Surampudi, J. Fluorine Chemistry, 125, 1217 (2004); the entire disclosure of which is hereby incorporated by reference). Specifically, two sheets of carbon paper (Toray 030- non-teflonized) were coated with an ink containing 0.1 g of Vulcan XC-72 carbon black and 0.3 g of NAFION®. The coated electrodes were hot pressed with a NAFION® 117 membrane to form a MEA. All full cell experiments were carried out at 23° C. Two glass containers served as reservoirs for the solutions of the redox couples. An argon flow was maintained above these solutions to avoid reaction of the redox couples with oxygen. The current-voltage characteristics of the cells were measured at various states of charge. Charge/discharge studies were carried out under constant current conditions. […]"}}, "data": [{"smiles": "O=C1c2ccc(S(=O)(=O)O)cc2C(=O)c2ccc(S(=O)(=O)O)cc21", "note": "[Anthraquinone 2,6-disulfonic acid, anthraquinone-2,6-disulfonic acid]", "values": [{"measurement": "Standard Reduction Potentials: E°(formal) Measured", "setting": "[1]; 1 M sulfuric acid", "result": 0.19}, {"measurement": "kinetic reversibility from cyclic voltammograms", "setting": "[1]; 1 M sulfuric acid, glassy carbon", "result": "less kinetically reversible than AQS"}, {"measurement": "Diffusion Coefficient, (cm^2 s^-1)", "setting": "[1]; Table 5, 1 M sulfuric acid, Levich plot", "result": "3.40E-6", "unit": "cm^2 s^-1"}, {"measurement": "E½ vs. MSE, Volt", "setting": "[1]; Table 5, MSE E°=+0.65 V, 1 M sulfuric acid", "result": -0.60, "unit": "Volt"}, {"measurement": "Transfer Coefficient, an", "setting": "[1]; Table 5, Tafel analysis", "result": 0.426}, {"measurement": "Exchange Current Density, (A cm^-2)", "setting": "[1]; Table 5, glassy carbon RDE, 1 M sulfuric acid", "result": "2.97E-6", "unit": "A cm^-2"}, {"measurement": "Rate Constant, k°", "setting": "[1]; Table 5, obtained from exchange current density", "result": 0.000152, "unit": "cm/s"}, {"measurement": "Diffusion Coefficient (cm2/sec)", "setting": "[1]; Table 7", "result": "4.04E-6", "unit": "cm2/sec"}, {"measurement": "Exchange Current density (A/cm^2)", "setting": "[1]; Table 7", "result": "1.81E-6", "unit": "A/cm^2"}, {"measurement": "E½ vs. MSE, Volt", "setting": "[1]; Table 7, 1 M sulfuric acid", "result": -0.58, "unit": "Volt"}, {"measurement": "Standard Reduction Potentials: Experimental (E½ values) vs. NHE", "setting": "[1]; vs. NHE, 1 M sulfuric acid", "result": 0.05}, {"measurement": "reversible peak potential vs. MMO", "setting": "[2]", "result": "about -0.35 V"}, {"measurement": "charge-discharge cycling stability (capacity change)", "setting": "[3]", "result": "charge-discharge cycling stability similar to AQS"}, {"measurement": "solubility", "setting": "Solubility; Solubility, Table 5", "result": 500, "unit": "mM"}, {"measurement": "solubility", "setting": "Solubility; water, aqueous solubility limit, aqueous", "result": "~500", "unit": "mM"}]}]}
